Laboratory results taken from US6166067A, “Inhibitors of cholesterol-biosynthesis for reducing the cholesterol content of poultry eggs” (priority 1998, dated 2000).
Structures can show the parent of a compound that is named as a salt. Where two headings read alike, the source gives them in different places. Values belong to the molecule of their own block, whether it stands above or below them.

Columns and labels:
[1] = tested on: total cholesterol in the yolk; experiment: Total cholesterol in egg yolk, laying-hen feeding trial (Example 1); assay type: in vivo, laying hens (Lohmann Selected Leghorn); conditions: 4 weeks
Protocol: (§1) At the start of the trial, the laying hens (Lohmann Selected Leghorn) had been laying for 28 weeks. One treatment group consisted of 10 hens. The birds were initially fed with the various active ingredients for 4 weeks. The eggs were then collected for the analyses. 3 independent yolk pools were formed from 6 eggs in each case and were deep-frozen until analyzed. Total cholesterol and triglycerides in the yolk were analyzed by enzymatic methods. The analyses were carried out as stated in the handbook "Veterinarmedizinische Laboruntersuchungen fur die Diagnose und Verlaufskontrolle" (1985), 3rd edition, published by Boehringer Mannheim GmbH, Mannheim.
(§2) For the cholesterol determination, the cholesterol esters were cleaved to cholesterol and fatty acid by the action of cholesterol esterase. Free cholesterol is converted by atmospheric oxygen with the involvement of cholesterol oxidase into Δ^4 -cholestenone and hydrogen peroxide. The resulting hydrogen peroxide forms with 4-aminophenazone and phenol through the catalytic action of peroxidase a red dye whose intensity of color is directly proportional to the cholesterol concentration and can be measured at 500 to 550 nm.
(§3) The data were subjected to analysis of variance, and differences between means were ranged by the Duncan test.

[2] = tested on: triglycerides in the yolk; experiment: Triglycerides in egg yolk, laying-hen feeding trial (Example 1); assay type: in vivo, laying hens (Lohmann Selected Leghorn); conditions: 4 weeks
Protocol: as §1
(§4) The triglycerides are determined enzymatically via their glycerol content. The triglycerides are cleaved enzymatically by the enzymes lipase and esterase. The resulting glycerol is phosphorylated by ATP to glycerol 3-phosphate in the reaction catalyzed by glycerol kinase GK.
glycerol+ATP.revreaction.glycerol 3-phosphate+ADP
The resulting ADP is converted by pyruvate kinase (PK) with phosphoenolpyruvate (PEP) back into ATP, with formation of pyruvate. [drawing 6] Pyruvate is hydrogenated to lactate by lactate dehydrogenase (LDH) with NADH, the NADH being oxidized to NAD. [drawing 7]
The amount of NADH consumed during the reaction is equivalent to the amount of glycerol. NADH is the measured variable and can easily be determined from its absorption at Hg 366 nm, Hg 334 nm or 340 nm.
as §3

[3] = Tocopherol and tocotrienol contents in yolk by HPLC (Example 1); assay type: in vivo, laying hens (Lohmann Selected Leghorn)
Protocol: as §1
Tocopherols and tocotrienols in the yolk pools were determined by HPLC. To do this, the sample is hydrolyzed in aqueous alcoholic medium and extracted several times with diethyl ether. Quantification takes place by comparison with external standards.
Stationary phase: Spherisorb CN 5 μm, 250×4 mm
Mobile phase: n-Hexane with 0.25% i-propanol
Fluorescence detection: 292 nm (extinction) 326 nm (emission)

HMG-CoA reductase [4] = conditions: broilers, supplementation; cited from earlier work
plasma cholesterol [5] = conditions: broilers, when cholesterol was fed at the same time; cited from earlier work
[6] = cited from earlier work
[7] = tested on: cholesterol content of poultry eggs; conditions: cited from earlier work; for reduction of cholesterol content of poultry eggs: literature (Elkin et al.)
plasma cholesterol [8] = experiment: Cholesterol in plasma, laying-hen feeding trial (Example 2); assay type: in vivo, laying hens; conditions: control 125.3
Source text: as §2
(§5) Another feeding experiment was carried out in analogy to Example 1. In this case the intention was to test not only α- and δ-tocotrienol but also a tocotrienol precursor (4-oxo-γ-tocotrienol) and other terpenoids such as farnesyl acetate, perillyl alcohol, linalool and β-ionone, in laying hens.
(§6) The trial protocol corresponds to that in Example 1 but with the following amendments:
(§7) The number of birds comprised 8 hens per treatment.
(§8) 4 birds in each case from the control and the high dosages were sacrificed at the end of the trial. After taking blood to obtain plasma, the birds were completely exsanguinated. The liver was then removed and deep frozen until analyzed.
(§9) Triglyceride and cholesterol were determined in 4 independent yolk pools(each from 6 eggs) and plasma.

triglycerides in yolk = experiment: Triglycerides in egg yolk, laying-hen feeding trial (Example 2); assay type: in vivo, laying hens; conditions: control 170.4
Protocol: as §4, §5, §6, §7, §9

cholesterol in yolk = experiment: Cholesterol in egg yolk, laying-hen feeding trial (Example 2); assay type: in vivo, laying hens; conditions: for Cholesterol, yolk: control 10.23; for reduction in yolk cholesterol: significant; for trend in yolk cholesterol content: Example 2
Source text: as §2, §5, §6, §7, §9

plasma triglyceride = experiment: Triglycerides in plasma, laying-hen feeding trial (Example 2); assay type: in vivo, laying hens; conditions: for Triglycerides, plasma: control 2496; for reduction of plasma triglyceride level: Example 2, maximum
Protocol: as §4, §5, §6, §7, §8, §9

HMG-CoA reductase [9] = conditions: cell culture and rats and mice; cited from earlier work
tumors = conditions: cell culture and rats and mice; cited from earlier work
[10] = tested on: cholesterol synthesis in macrophages; conditions: Fuhrmann et al. 1997; cited from earlier work
[11] = tested on: β-hydroxy-β-methyl-glutaryl (HMG)-CoA reductase; conditions: cited from earlier work
[12] = 1000 mg/kg feed, after hydrolysis
[13] = 500 mg/kg feed, significant, complete yolk
[14] = 20 mg/kg feed, after hydrolysis
[15] = 500 mg/kg feed, after hydrolysis
[16] = both dosages (100 and 1000 mg/kg feed)

Molecule: CC(=O)Oc1c(C)c(C)c2c(c1C)CCC(C)(CCCC(C)CCCC(C)CCCC(C)C)O2 (racemic) [vitamin E (all-rac-α-tocopheryl acetate), all-rac-α-tocopheryl acetate, reference compound]
effect on cholesterol in the yolk ([1]; 1000 mg/kg feed): no effect
effect on triglycerides in the yolk ([2]; 1000 mg/kg feed): no effect
α-Tocopherol content in yolk [3, 12]: 23064 μg/yolk
α-Tocotrienol content in yolk [3, 12]: 227 μg/yolk
γ-Tocopherol content in yolk [3, 12]: 188 μg/yolk
δ-Tocopherol content in yolk [3, 12]: 36 μg/yolk
δ-Tocotrienol content in yolk [3, 12]: 0 μg/yolk
α-Tocopherol content in yolk ([3]; 1000 mg/kg feed, control 0.48 mg): 23 mg
effect on γ-tocopherol in the yolk ([3]; high α-tocopherol dosage (1000 mg/kg feed)): reduction in γ-tocopherol in the yolk
effect on HMG-CoA reductase (HMG-CoA reductase [4]): stimulation of HMG-CoA reductase
change in plasma cholesterol (plasma cholesterol [5]): increase in plasma cholesterol

α-Tocopherol content in yolk [3, 14]: 545 μg/yolk
α-Tocotrienol content in yolk [3, 14]: 0 μg/yolk
γ-Tocopherol content in yolk [3, 14]: 393 μg/yolk
δ-Tocopherol content in yolk [3, 14]: 57 μg/yolk
δ-Tocotrienol content in yolk [3, 14]: 0 μg/yolk
α-Tocopherol content in yolk [3, 15]: 433 μg/yolk
α-Tocotrienol content in yolk [3, 15]: 0 μg/yolk
γ-Tocopherol content in yolk [3, 15]: 425 μg/yolk
δ-Tocopherol content in yolk [3, 15]: 59 μg/yolk
δ-Tocotrienol content in yolk [3, 15]: 366 μg/yolk
Molecule: CC(=O)Oc1cc2c(c(C)c1C)OC(C)(CC/C=C(\C)CC/C=C(\C)CCC=C(C)C)CC2 (racemic) [γ-tocotrienol acetate]
reduction in cholesterol in the yolk [1, 13]: 15%
effect on cholesterol in the yolk ([1]; low dosage, 20 mg/kg feed): no effect
reduction in triglycerides in the yolk [2, 13]: 15%
effect on triglycerides in the yolk ([2]; low dosage, 20 mg/kg feed): no effect

Molecule: CC(C)c1c(Br)c(Br)c(-c2ccc(F)cc2)n1CC[C@@H](O)C[C@@H](O)CC(=O)O (relative stereo) [(±)-(R*,R*)-3,4-dibromo-β,δ-dihydroxy-2-(4-fluorophenyl)-5-(1-methylethyl)-1H-pyrrole-1-heptanoic acid, Na salt]
influence on poultry performance parameters, such as the egg output ([6]; literature (Elkin et al.)): without influencing
reduction of cholesterol content of poultry eggs [7]: 30%

Molecule: CC(C)=CCC/C(C)=C/CC/C(C)=C/CCC1(C)CC(=O)c2cc(O)c(C)c(C)c2O1 (stereo not shown) [4-Oxo-γ-tocotrienol, 4-oxo-γ-tocotrienol]
Cholesterol, plasma (plasma cholesterol [8]; 500 mg/kg feed): 166.8 mg/dL
Triglycerides, yolk (triglycerides in yolk; 50 mg/kg feed): 188.3 mg/g
Triglycerides, yolk (triglycerides in yolk; 500 mg/kg feed): 172.0 mg/g
Cholesterol, yolk (cholesterol in yolk; 50 mg/kg feed): 9.78 mg/g
Cholesterol, yolk (cholesterol in yolk; 500 mg/kg feed): 8.55 mg/g
reduction in yolk cholesterol (cholesterol in yolk; high dosage (500 mg/kg feed)): up to 18%
Triglycerides, plasma (plasma triglyceride; 500 mg/kg feed): 4336 mg/dL

Molecule: CC(=O)OC/C=C(\C)CC/C=C(\C)CCC=C(C)C [Farnesyl acetate, farnesyl acetate]
Cholesterol, plasma (plasma cholesterol [8]; 7500 mg/kg feed): 129.3 mg/dL
Triglycerides, yolk (triglycerides in yolk; 750 mg/kg feed): 177.1 mg/g
Triglycerides, yolk (triglycerides in yolk; 7500 mg/kg feed): 175.9 mg/g
Cholesterol, yolk (cholesterol in yolk; 750 mg/kg feed): 10.15 mg/g
Cholesterol, yolk (cholesterol in yolk; 7500 mg/kg feed): 10.23 mg/g
Triglycerides, plasma (plasma triglyceride; 7500 mg/kg feed): 1929 mg/dL
reduction of plasma triglyceride level (plasma triglyceride): ≤ 25%

Molecule: C=CC(C)(O)CCC=C(C)C (stereo not shown) [Linalool, linalool]
Cholesterol, plasma (plasma cholesterol [8]; 1000 mg/kg feed): 211.6 mg/dL
Triglycerides, yolk (triglycerides in yolk; 100 mg/kg feed): 187.5 mg/g
Triglycerides, yolk (triglycerides in yolk; 1000 mg/kg feed): 163.1 mg/g
Cholesterol, yolk (cholesterol in yolk; 100 mg/kg feed): 8.40 mg/g
Cholesterol, yolk (cholesterol in yolk; 1000 mg/kg feed): 8.97 mg/g
reduction in yolk cholesterol (cholesterol in yolk; [16]): up to 18%
inhibition of HMG-CoA reductase (HMG-CoA reductase [9]): inhibit HMG-CoA reductase
Triglycerides, plasma (plasma triglyceride; 1000 mg/kg feed): 1907 mg/dL
inhibition of tumors (tumors): inhibit tumors

Molecule: C=C(C)C1CC=C(CO)CC1 (stereo not shown) [Perillyl alcohol, perillyl alcohol]
Cholesterol, plasma (plasma cholesterol [8]; 5000 mg/kg feed): 165.3 mg/dL
Triglycerides, yolk (triglycerides in yolk; 500 mg/kg feed): 188.5 mg/g
Triglycerides, yolk (triglycerides in yolk; 5000 mg/kg feed): 174.4 mg/g
Cholesterol, yolk (cholesterol in yolk; 500 mg/kg feed): 9.55 mg/g
Cholesterol, yolk (cholesterol in yolk; 5000 mg/kg feed): 9.53 mg/g
trend in yolk cholesterol content (cholesterol in yolk): trend toward reduced cholesterol contents in yolk
Triglycerides, plasma (plasma triglyceride; 5000 mg/kg feed): 2197 mg/dL
reduction of plasma triglyceride level (plasma triglyceride): ≤ 25%

Molecule: C=C(C)[C@H]1CC=C(C)CC1 [d-limonene]
inhibition of HMG-CoA reductase (HMG-CoA reductase [9]): inhibit HMG-CoA reductase
inhibition of tumors (tumors): inhibit tumors

Molecule: CC(C)=CCC/C(C)=C/CO [geraniol, reference compound]
inhibition of HMG-CoA reductase (HMG-CoA reductase [9]): inhibit HMG-CoA reductase
inhibition of tumors (tumors): inhibit tumors

Molecule: CC[C@H](C)C(=O)O[C@H]1C[C@@H](C)C=C2C=C[C@H](C)[C@H](CC[C@@H]3C[C@@H](O)CC(=O)O3)[C@H]21 [lovastatin]
influence on poultry performance parameters, such as the egg output ([6]; in vivo): without influencing
reduction of cholesterol content of poultry eggs [7]: 15%

Molecule: CC(C)=CCC/C(C)=C/C=C/C(C)=C/C=C/C(C)=C/C=C/C=C(C)/C=C/C=C(C)/C=C/C=C(\C)CCC=C(C)C [lycopene]
inhibition of cholesterol synthesis in macrophages [10]: inhibit cholesterol synthesis in macrophages

Molecule: CCC(C)(C)C(=O)O[C@H]1C[C@@H](C)C=C2C=C[C@H](C)[C@H](CC[C@@H]3C[C@@H](O)CC(=O)O3)[C@H]21 [simvastatin]
effect on the cholesterol content in eggs ([7]; literature (Huggett et al.; Beyer and Jensen)): no effect

Molecule: CC(=O)/C=C/C1=C(C)CCCC1(C)C [β-Ionone, β-ionone]
Cholesterol, plasma (plasma cholesterol [8]; 1000 mg/kg feed): 201.3 mg/dL
Triglycerides, yolk (triglycerides in yolk; 100 mg/kg feed): 190.7 mg/g
Triglycerides, yolk (triglycerides in yolk; 1000 mg/kg feed): 184.8 mg/g
Cholesterol, yolk (cholesterol in yolk; 100 mg/kg feed): 9.03 mg/g
Cholesterol, yolk (cholesterol in yolk; 1000 mg/kg feed): 9.03 mg/g
reduction in yolk cholesterol (cholesterol in yolk; [16]): up to 18%
inhibition of HMG-CoA reductase (HMG-CoA reductase [9]): inhibit HMG-CoA reductase
Triglycerides, plasma (plasma triglyceride; 1000 mg/kg feed): 1954 mg/dL
reduction of plasma triglyceride level (plasma triglyceride): ≤ 25%
inhibition of tumors (tumors): inhibit tumors

Molecule: CC1=C(/C=C/C(C)=C/C=C/C(C)=C/C=C/C=C(C)/C=C/C=C(C)/C=C/C2=C(C)CCCC2(C)C)C(C)(C)CCC1 [β-carotene]
inhibition of cholesterol synthesis in macrophages [10]: inhibit cholesterol synthesis in macrophages

Molecule: CC(C)=CCC/C(C)=C/CC/C(C)=C/CCC1(C)CCc2cc(O)c(C)c(C)c2O1 (stereo not shown) [γ-tocotrienol]
accumulation of γ-tocotrienol in the yolk ([3]; fed as γ-tocotrienol acetate): scarcely any accumulation
γ-tocotrienol detected in the yolk ([3]; high dosage (500 mg/kg feed, as acetate)): 366 µg
relative effect versus α-tocotrienol ([11]; HepG2 cell cultures): about 30 times

Molecule: CC(C)=CCC/C(C)=C/CC/C(C)=C/CCC1(C)CCc2cc(O)cc(C)c2O1 (stereo not shown) [δ-Tocotrienol, δ-tocotrienol]
Cholesterol, plasma (plasma cholesterol [8]; 500 mg/kg feed): 163.0 mg/dL
Triglycerides, yolk (triglycerides in yolk; 50 mg/kg feed): 185.2 mg/g
Triglycerides, yolk (triglycerides in yolk; 500 mg/kg feed): 163.9 mg/g
Cholesterol, yolk (cholesterol in yolk; 50 mg/kg feed): 9.25 mg/g
Cholesterol, yolk (cholesterol in yolk; 500 mg/kg feed): 9.23 mg/g
trend in yolk cholesterol content (cholesterol in yolk): trend toward reduced cholesterol contents in yolk
Triglycerides, plasma (plasma triglyceride; 500 mg/kg feed): 2985 mg/dL

Molecule: nicotinate [reference compound]
effect of ester form by comparison with the alcohol and acetate forms ([11]; U.S. Pat. No. 5,217,992): most pronounced
